The values below come from article PMC11395145, “The Archetypal Gamma-Core Motif of Antimicrobial Cys-Rich Peptides Inhibits H^+-ATPases in Target Pathogens” (International Journal of Molecular Sciences, 2024).

Assay [1] relates to Pseudomonas aeruginosa 10145 (PAO1). The assay is described as follows: Microbicidal (spread-plate cell viability) assay, pseudomonacidal activity. The class given is cell-based. The following applies: for microbicidal (pseudomonacidal) activity, in words: 90 min, 37 °C, Tris buffer pH 7.4, 10^6 cells/mL, CFU plating. Here is the method: (§1) First, we tested the antimicrobial activity of Kal-1 and a shorter Kal-1-derived peptide (Kdp15), both containing the complete γ-core signature of human lactoferrin, against C. albicans and P. aeruginosa. Microbicidal (cidal) activity was determined after 90 min of incubation (37 °C; pH 7.4) with a range of concentrations of each hLf-derived peptide.
(§2) Figure 1 Cell viability and membrane permeabilization assays. C. albicans or P. aeruginosa (10^6 cells/mL) were incubated (90 min, 37 °C) with each peptide/protein at the indicated concentrations. Aliquots were plated on SDA or […], and colonies were counted after 24–48 h (C. albicans) or 24 h (P. aeruginosa). At each point, samples were stained with propidium iodide (PI) and intracellular PI incorporation, indicative of membrane permeabilization, was quantified by flow cytometry. The relative cell viability (blue lines) and cellular permeabilization (red lines) were calculated as the percentage of untreated cells. Human lactoferrin (hLf) and the peptide Lfpep were used as negative and positive controls of cellular permeabilization, respectively.
(§3) Microbial susceptibility to the peptides was determined in a spread-plate assay as described previously. Briefly, two-fold serially diluted peptides were incubated (37 °C) with approximately 10^6 cells/mL in Tris buffer (10 mM Tris-HCl, pH 7.4). After 90 min of incubation with the peptides, aliquots were removed and plated in duplicate on an appropriate agar plate for each species (SDA for C. albicans, TSA for P. aeruginosa). The plates were incubated for 24–48 h at 30 °C (C. albicans) or 24 h at 37 °C (P. aeruginosa) for enumeration. The cell viability values, expressed as colony forming units (CFUs), were determined relative to incubation without added peptides and represent the mean ± standard deviation (±SD) of at least three independent determinations. For inhibition assays, the cell suspensions were preincubated (15 min at 37 °C) with the corresponding inhibitors before the addition of peptides. Water-insoluble inhibitors were prepared in DMSO, such that the final assay volume was ≤1%. Other specific experimental inhibition conditions are described where appropriate. The IC50 value is expressed as the concentration that caused 50% reduction in viable counts.

The test system of assay [2] is Candida albicans ATCC 10231. The following applies: used in control assays; cited from earlier work. Here is the method:
First, we tested the antimicrobial activity of Kal-1 and a shorter Kal-1-derived peptide (Kdp15), both containing the complete γ-core signature of human lactoferrin, against C. albicans and P. aeruginosa. Microbicidal (cidal) activity was determined after 90 min of incubation (37 °C; pH 7.4) with a range of concentrations of each hLf-derived peptide. The hLf γ-core-containing peptides were microbicidal in a concentration-dependent way (Figure 1). […] The IC50 es ...

For assay [3], the system named is Candida albicans ATCC 10231. The assay is described as follows: Microbicidal (spread-plate cell viability) assay, candidacidal activity. The following applies: for microbicidal (candidacidal) activity, in words: 90 min, 37 °C, Tris buffer pH 7.4, 10^6 cells/mL, CFU plating. It is filed as cell-based. Here is the method:
as §1, §2, §3

The test system of assay [4] is C. albicans cells. Put plainly: Measurement of intracellular ATP (BacTiter-Glo). It is filed as cell-based, Candida albicans. The following applies: C. albicans 10^6 cells/mL, candidacidal concentration, 90 min, 37 °C; BM2 0.25 μM. Here is the method:
Total ATP was measured by using the BacTiter-Glo^TM Microbial Cell Viability Assay (Promega Co., Madison, WI, USA) according to the manufacturer’s instructions. […] Aliquots (100 μL) were incubated (90 min at 37 °C) with kaliocin-1, Kdp15, or human lactoferrin and the BM2 peptide (positive control). One hundred microliters of incubation mix was transferred into a 96-well opaque white plate, mixed with an equal volume of the BacTiter-Glo reagent, and incubated for 15 min in the dark. The reagent used a thermostable luciferase to produce luminescence in an ATP-dependent manner. The emitted luminescence was detected by using a Varioskan Flash multimode reader (Thermo Scientific, Waltham, MA, USA) with a 10 s of shaking and 1 s integration time. A calibration curve was prepared for each experiment, with ATP standards ranging from 1 to 1000 nM. For assays performed in the presence of the BM2 peptide, samples were preincubated with 0.25 μM BM2 for 30 min at 37 °C. All the tests were performed in triplicate at least four times.

The subject of the next assay is P. aeruginosa cells. Put plainly: Oxygen consumption measurement (Clark-type electrode). The class given is cell-based, Pseudomonas aeruginosa. The following applies: 5 × 10^6 cells/mL, peptides at IC50, piericidin A 32 μM, at least 30 min, 25 °C. Here is the method:
(§4) Figure 3 Effect of cellular respiration on the microbicidal activity of hLf γ-core-containing peptides. (A,C) Oxygen consumption was measured in C. albicans and P. aeruginosa cellular suspensions in the absence (control) or the presence of kaliocin-1 (Kal-1), Kdp15, or human lactoferrin (hLf), and piericidin A (positive control). (B,D) Effect of cellular respiration on the microbicidal activity of hLf γ-core-containing peptides. Cells (10^6 cells/mL) were pre-incubated (15 min, 37 °C) with 32 μM piericidin A and incubated for 90 min at 37 °C with the peptides hLf or BM2. The cell viability was determined by means of the plate counting method. The results are the mean ± SD from duplicates of at least three independent experiments. * p < 0.05, ** p < 0.01, and *** p < 0.001 were used.
(§5) C. albicans or P. aeruginosa cells were grown to the mid-logarithmic phase, washed twice in Tris buffer, and resuspended in the same buffer, as described in [9, 10]. Briefly, cells (5 × 10^6 cells/mL) were pre-incubated for 15 min at 37 °C with the peptides (IC50). […] Oxygen consumption was measured using a Clark-type oxygen electrode (Dual digital-model 20, Rank Brothers Ltd., Cambridge, UK) in a closed jacketed chamber maintained at 25 °C. […] The viability of the cells was determined at 30 min by removing aliquots from the oxygen chambers and plating the subsequent dilutions on SDA or TSA plates.

For assay [5], the system named is C. albicans cells. The description is as above. It is filed as cell-based, Candida albicans. The following applies: 5 × 10^6 cells/mL, peptides at IC50, piericidin A 32 μM, at least 30 min, 25 °C. Here is the method:
as §4, §5

Setting [6] is: concentration range 0 to 100 μM.

Where a SMILES comes first, the peptide text is derived from it. Bridges are numbered along the chain shown (N, C = ends).

With “HCKNKEHLRSGRCRDDFRCWCT [PvD1, 22-aa γ-core fragment of defensin PvD1 from Phaseolus vulgaris (bean)]”, the “microbicidal (pseudomonacidal) activity, in words” value in assay [1] is listed as “showed pseudomonacidal activity”.

Consider “D-NH2-RRRFWWFRRR-CONH2 [BM2, reference compound]”, for which, in assay [2], the “previously reported microbicidal concentration (organism not given)” value is 0.25 µM. The “decrease of candidacidal activity by oligomycin A” value in assay [3] (0.25 μM BM2, cells pre-incubated 15 min, 37 °C with 16 μg/mL oligomycin A) is ~ 62%. The “effect of high external K^+ on candidacidal activity” value in assay [3] (Tris buffer with 50 mM KCl vs without) was “decreased”. In addition, the “effect of respiration inhibition (piericidin A) on candidacidal activity” value in assay [3] (cells pre-incubated 15 min, 37 °C with 32 μM piericidin A, then 90 min with peptide) is “substantially inhibited”. The “effect of Tok1p K^+ channel block (TEA^+) on candidacidal activity” value in assay [3] (cells pre-incubated 15 min with 10 mM TEA^+) was “significantly (p < 0.001) inhibited”. Also, the “increment in intracellular ATP (iATP) level compared to untreated control” value with C. albicans cells [4] was ~ 9 fold.

CAGTGENKC [Kdp9]: the “antimicrobial activity, in words” value in assay [1] (setting [6]) and in assay [3] (setting [6]) was “not detected” in each case.

With `C/C=C(\C)[C@H](O)[C@H](C)/C=C(C)/C=C/C/C(C)=C/Cc1nc(OC)c(OC)c(O)c1C` [piericidin A, reference compound], the “oxygen consumption of P. aeruginosa in presence of the substance” value with P. aeruginosa cells is on record as “inhibited”. Besides, in the assay with C. albicans cells [5], the “oxygen consumption of C. albicans in presence of the substance” value is “inhibited”.

For the compound `CC[C@H](C)[C@@H]1NC(=O)[C@H](C(C)C)NC(=O)[C@H](CC(C)C)NC(=O)CNC(=O)[C@H](C(C)C)NC(=O)[C@@H]2CCCN2C(=O)[C@H]([C@@H](C)CC)NC(=O)[C@@H]2CSSC[C@@H]3NC(=O)[C@H](C(C)C)NC(=O)CNC(=O)[C@H](CC(N)=O)NC(=O)[C@@H](NC(=O)[C@H](CO)NC(=O)[C@H](C)NC(C)=O)CSSC[C@H](NC(=O)[C@H](C)NC(=O)[C@H](CO)NC(=O)[C@H]([C@@H](C)O)NC(=O)CNC(=O)[C@H](CSSC[C@@H](C(=O)N[C@@H](CCCNC(=N)N)C(=O)N[C@@H](CC(N)=O)C(=O)N4CCC[C@H]4C(=O)N[C@@H](CO)C(=O)NCC(N)=O)NC(=O)[C@H](Cc4ccc(O)cc4)NC(=O)CNC1=O)NC(=O)[C@@H]1CCCN1C(=O)[C@@H]1CCCN1C(=O)[C@H](CCSC)NC(=O)[C@H](CCC(=O)O)NC(=O)[C@H](Cc1ccccc1)NC(=O)[C@@H]1CCCN1C(=O)[C@H](CO)NC3=O)C(=O)N[C@@H](CCCNC(=N)N)C(=O)N2` [PA1b] (Ac-ASCNGVCSPFEMPPCGTSACRCIPVGLVIGYCRNPSG-NH2; disulfide 3-20, 7-22, 15-32), the “microbicidal (pseudomonacidal) activity, in words” value in assay [1] was “not pseudomonacidal”. The “microbicidal (candidacidal) activity, in words” value in assay [3] was “showed candidacidal activity”.

As to “GSKKPVPIIYCNRRTGKCQRM [Thanatin, complete 21-aa antimicrobial peptide from Podisus maculiventris (insect)]”, the “microbicidal (pseudomonacidal) activity, in words” value in assay [1] is “most potent”. For the same compound, in assay [3], the “microbicidal (candidacidal) activity, in words” value was “most potent”.
